From PubChem BioAssay AID2060620 (Molecular Pharmacology Branch, DTP, NCI, 2025)

Test system: 328373-195-R-J1-PDC complex spheroids, viability % test/control
Experiment: Anticancer human tumor 328373-195-R-J1-PDC patient-derived head and neck squamous carcinoma cell line growth inhibition [CLK]
Conditions: for IC50: curve of first compound; for viability, T/C: stronger effect = lower value
Excerpt: A high-throughput screen of multi-cell type tumor spheroids was designed to identify active combinations of […] and targeted small molecules. Complex spheroids include a stromal component modeled by human endothelial cells (HUVEC) and fibroblasts modeled by human mesenchymal stem cells (MSCs). The concentration ranges selected for each drug and investigational agent were based upon clinically achievable concentrations if the clinical Cmax of the agent was known.
Compounds. The drugs and investigational agents: cirtuvivint (SM08502; NSC835563), CC-671 (NSC850746), vemurafenib (NSC761431), tapotoclax (NSC804041), sotorasib (NSC818433), adagrasib (NSC831453), MRTX-1133 (NSC836407), BAY2416964 (NSC825713), copanlisib (NSC816437), inavolisib (NSC800729), abemaciclib (NSC768073), osimertinib (NSC779217), entinostat (NSC756642), eltanexor (KPT-8602, NSC794443), venetoclax (NSC766270), ceralasertib (NSC777638), bortezomib (NSC756655), olaparib (NSC753686), talazoparib (NSC767125), alisertib (NSC759677), peposertib (NSC802822), gemcitabine (NSC613327), 5-fluorouracil (NSC19893), SN-38 (NSC673596), oxaliplatin (NSC266046), paclitaxel (NSC125973), and doxorubicin (NSC123127), were obtained from the National Cancer Institute (NCI) Developmental Therapeutics Program Chemical Repository. The FDA-approved anticancer drug set is available from the Developmental Therapeutics Program at https://dtp.cancer.gov/organization/dscb/obtaining/available plates.htm. […] The stock solutions were prepared in dimethyl sulfoxide (DMSO, Sigma-Aldrich, St. Louis, MO, cat. D2650), except for the platinum complexes which were prepared in saline (Quality Biological, Gaithersburg, MD, cat. 114-055-101), at 800-fold the tested concentration and stored at -70 degrees C prior to their use. All drugs and investigational agents were tested over a range starting from a high concentration at or near the clinical Cmax and decreasing in half-log increments. If the clinical Cmax for an agent had not been determined, the highest concentration tested was 10 microM.
Cell Culture. All cells were maintained in an incubator at 37 degrees C and 5% CO2 with 95% humidity. The PDC lines were cultured according to standard operating procedures established by the NCI PDMR. Briefly, all PDCs were thawed and cultured in Matrigel-coated flasks prepared with a working solution of 1X Ham's F-12 nutrient mix, without supplementation (Invitrogen, Waltham, MA, cat. 11765054), 100 U/mL penicillin-streptomycin (Invitrogen, cat. 15140122), and 2.5% Matrigel (Corning Inc., Corning, NY, cat. 354248) for the first three passages. The 947758-054-R-J2-PDC line was cultured in 6B/Colon 1A media, which includes advanced DMEM/F-12 (Thermo Fisher Scientific, cat. 12634028), 10 mM HEPES (Thermo Fisher Scientific, cat. 15630080), 1X GlutaMAX supplement (Thermo Fisher Scientific, cat. 35050061), 0.1 mg/mL primocin (InvivoGen, cat. ant-pm-2), 10% defined fetal bovine serum, heat inactivated (HyClone Laboratories Inc., cat. SH30070.03HI), 1.25 mM N-Acetyl-L-cysteine (Sigma-Aldrich, cat. A9165), 10 mM nicotinamide (Sigma-Aldrich, cat. N0636), 1X B-27 supplement (Thermo Fisher Scientific, cat. 17504044), 1X N-2 supplement (Thermo Fisher Scientific, cat. 17502048), and 10 microM Y-27632 dihydrochloride (Tocris Bioscience, cat. 1254). The 876862-298-R-J1-PDC was cultured in 6E media, which includes all 6B/Colon 1A media components plus 50% L-WRN conditioned media (ATCC, cat. CRL-3276), 50 ng/mL recombinant human EGF recombinant protein (hEGF; Thermo Fisher Scientific, cat. PHG0311), 10 ng/mL recombinant human fibroblast growth factor 10 (hGFG-10; PeproTech, cat. 100-26), 1 ng/mL recombinant human fibroblast growth factor 2 (hFGF-2; PeproTech, cat. 100-18B), and 1 µM prostaglandin E2 (PGE2; Tocris, cat. 2296). The 227483-062-R1-J1-PDC line was cultured in Panc media, containing all 6E components except hFGF-2, with the addition of 500 nM SB-431542 (Selleckchem, cat. S1067) and 10 nM gastrin (Tocris, cat. 3006). […]

[1] = second compound 0.0316 µM, first compound 0.0316 µM
[2] = second compound 0.0316 µM, first compound 0.1 µM
[3] = second compound 0.0316 µM, first compound 0.316 µM
[4] = second compound 0.0316 µM, first compound 1 µM
[5] = second compound 0.0316 µM, first compound 3.16 µM
[6] = second compound 0.0316 µM, first compound 10 µM
[7] = second compound 0.1 µM, first compound 0.0316 µM
[8] = second compound 0.1 µM, first compound 0.1 µM
[9] = second compound 0.1 µM, first compound 0.316 µM
[10] = second compound 0.1 µM, first compound 1 µM
[11] = second compound 0.1 µM, first compound 3.16 µM
[12] = second compound 0.1 µM, first compound 10 µM
[13] = second compound 0.316 µM, first compound 0.0316 µM
[14] = second compound 0.316 µM, first compound 0.1 µM
[15] = second compound 0.316 µM, first compound 0.316 µM
[16] = second compound 0.316 µM, first compound 1 µM
[17] = second compound 0.316 µM, first compound 3.16 µM
[18] = second compound 0.316 µM, first compound 10 µM
[19] = second compound 1 µM, first compound 0.0316 µM
[20] = second compound 1 µM, first compound 0.1 µM
[21] = second compound 1 µM, first compound 0.316 µM
[22] = second compound 1 µM, first compound 1 µM
[23] = second compound 1 µM, first compound 3.16 µM
[24] = second compound 1 µM, first compound 10 µM
[25] = second compound 3.16 µM, first compound 0.0316 µM
[26] = second compound 3.16 µM, first compound 0.1 µM
[27] = second compound 3.16 µM, first compound 0.316 µM
[28] = second compound 3.16 µM, first compound 1 µM
[29] = second compound 3.16 µM, first compound 3.16 µM
[30] = second compound 3.16 µM, first compound 10 µM
[31] = second compound 10 µM, first compound 0.0316 µM
[32] = second compound 10 µM, first compound 0.1 µM
[33] = second compound 10 µM, first compound 0.316 µM
[34] = second compound 10 µM, first compound 1 µM
[35] = second compound 10 µM, first compound 3.16 µM
[36] = second compound 10 µM, first compound 10 µM
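Note: spheroids exposed to the agents for 7 days.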

C#Cc1c(F)ccc2cc(O)cc(-c3ncc4c(N5CC6CCC(C5)N6)nc(OCC56CCCN5CC(F)C6)nc4c3F)c12 (centres undefined) + CN1CCN(c2cc(C(=O)Nc3cc4cc(-c5cnn(C)c5)ccc4cn3)ccn2)CC1
IC50 (second compound 0.0316 µM): > 10000 nM
IC50 (second compound 0.1 µM): > 10000 nM
IC50 (second compound 0.316 µM): < 31.6 nM
IC50 (second compound 1 µM): < 31.6 nM
IC50 (second compound 3.16 µM): < 31.6 nM
IC50 (second compound 10 µM): < 31.6 nM
viability, T/C [1]: 92.8%
viability, T/C [2]: 88%
viability, T/C [3]: 109%
viability, T/C [4]: 93.9%
viability, T/C [5]: 103%
viability, T/C [6]: 81.5%
viability, T/C [7]: 80.8%
viability, T/C [8]: 85.2%
viability, T/C [9]: 80.1%
viability, T/C [10]: 83.2%
viability, T/C [11]: 88.8%
viability, T/C [12]: 62.4%
viability, T/C [13]: 34%
viability, T/C [14]: 34.8%
viability, T/C [15]: 30.9%
viability, T/C [16]: 39.2%
viability, T/C [17]: 32.8%
viability, T/C [18]: 16.9%
viability, T/C [19]: 0.24%
viability, T/C [20]: 0.32%
viability, T/C [21]: 1.75%
viability, T/C [22]: 0.29%
viability, T/C [23]: 0.2%
viability, T/C [24]: 2.89%
viability, T/C [25]: 0.63%
viability, T/C [26]: 2.27%
viability, T/C [27]: 3.6%
viability, T/C [28]: 0.18%
viability, T/C [29]: 0.13%
viability, T/C [30]: 0.34%
viability, T/C [31]: 1.89%
viability, T/C [32]: 0.19%
viability, T/C [33]: 0.24%
viability, T/C [34]: 0.19%
viability, T/C [35]: 0.19%
viability, T/C [36]: 1.27%

C=C(F)C(=O)N1CCN(c2nc(OCC3CCCN3C)nc3c2CCN(c2cccc4cccc(Cl)c24)C3)CC1CC#N (centres undefined) + CN1CCN(c2cc(C(=O)Nc3cc4cc(-c5cnn(C)c5)ccc4cn3)ccn2)CC1
IC50 (second compound 0.0316 µM): 4080 nM
IC50 (second compound 0.1 µM): 3570 nM
IC50 (second compound 0.316 µM): < 31.6 nM
IC50 (second compound 1 µM): < 31.6 nM
IC50 (second compound 3.16 µM): < 31.6 nM
IC50 (second compound 10 µM): < 31.6 nM
viability, T/C [1]: 103%
viability, T/C [2]: 99.5%
viability, T/C [3]: 96.9%
viability, T/C [4]: 91.5%
viability, T/C [5]: 63%
viability, T/C [6]: 3.75%
viability, T/C [7]: 80.5%
viability, T/C [8]: 90.8%
viability, T/C [9]: 81.7%
viability, T/C [10]: 81.6%
viability, T/C [11]: 55.7%
viability, T/C [12]: 1.67%
viability, T/C [13]: 35.2%
viability, T/C [14]: 38.1%
viability, T/C [15]: 34.7%
viability, T/C [16]: 34.3%
viability, T/C [17]: 22.8%
viability, T/C [18]: 3.9%
viability, T/C [19]: 0.25%
viability, T/C [20]: 4.59%
viability, T/C [21]: 1.43%
viability, T/C [22]: 0.34%
viability, T/C [23]: 1.34%
viability, T/C [24]: 0.52%
viability, T/C [25]: 2.92%
viability, T/C [26]: 0.86%
viability, T/C [27]: 1.39%
viability, T/C [28]: 1.82%
viability, T/C [29]: 5.78%
viability, T/C [30]: 0.76%
viability, T/C [31]: 4.95%
viability, T/C [32]: 2.58%
viability, T/C [33]: 0.33%
viability, T/C [34]: 0.79%
viability, T/C [35]: 1.9%
viability, T/C [36]: 0.96%
